Source: the NIST ThermoML archive (doi:10.1016/j.fluid.2014.04.028)
± gives the expanded uncertainty stated by the source.

Tests used:
[1] = molar heat capacity at constant pressure; settings: 101.33 kPa, Small sample (50 mg) DSC
[2] = Crystal; DTA
[3] = Molar enthalpy of transition or fusion; settings: Crystal; DSC

Cc1nc2n(c(=O)c1CCN1CCC(c3noc4cc(F)ccc34)CC1)CCCC2 [risperidone]
[1]
Settings	molar heat capacity at constant pressure [J/K/mol]
270.1 K, Crystal	471 ± 12
275 K, Crystal	476 ± 13
280.1 K, Crystal	480 ± 12
284.9 K, Crystal	483 ± 12
290.1 K, Crystal	489 ± 12
294.9 K, Crystal	495 ± 12
300.1 K, Crystal	502 ± 12
304.9 K, Crystal	509 ± 12
310.1 K, Crystal	516 ± 12
314.9 K, Crystal	523 ± 12
320.1 K, Crystal	530 ± 12
324.9 K, Crystal	537 ± 12
330.1 K, Crystal	544 ± 12
334.9 K, Crystal	551 ± 13
340 K, Crystal	558 ± 13
345.1 K, Crystal	564 ± 13
350 K, Crystal	571 ± 13
355.1 K, Crystal	578 ± 13
359.9 K, Crystal	583 ± 13
365 K, Crystal	590 ± 13
370.1 K, Crystal	597 ± 13
375 K, Crystal	602 ± 13
380.1 K, Crystal	609 ± 13
384.9 K, Crystal	615 ± 14
390 K, Crystal	621 ± 14
394.9 K, Crystal	627 ± 14
400 K, Crystal	634 ± 14
405.1 K, Crystal	641 ± 14
409.9 K, Crystal	647 ± 14
430.1 K, Liquid	839 ± 14
434.9 K, Liquid	842 ± 14
440 K, Liquid	845 ± 14
445.1 K, Liquid	850 ± 14
449.9 K, Liquid	854 ± 14
453 K, Liquid	856 ± 14

Settings	Molar enthalpy of transition or fusion [kJ/mol]	Normal melting temperature [°C]
[2]	–	169.23 ± 0.63
[3]	43.9 ± 0.93	–
